From publication PMC9954146, “Anti-Leukaemic Activity of Rilpivirine Is Mediated by Aurora A Kinase Inhibition” (Cancers, 2023)

Experiments:
Test in all cases: Kinase panel
Type in all cases: biochemical
Conditions in all cases: read-out: % Residual Activity
[1] = target: T1, CaMKIδ(h) (Homo sapiens, UniProt Q8IU85)
T1 construct: purchased Eurofins (KinaseProfiler)
How it was run: (§1)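 In this kinome-wide profiling of rilpivirine, IC50 values were obtained in radiometric format at the Km concentration of ATP for each kinase, then expressed as Ki using Cheng–Prusoff.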

[2] = target: T2, Rsk3(h) (Homo sapiens, UniProt Q15349)
T2 construct: purchased Eurofins (KinaseProfiler)
How it was run: as §1

[3] = target: T3, c-RAF(h) (Homo sapiens, UniProt P04049)
T3 construct: purchased Eurofins (KinaseProfiler)
How it was run: as §1

[4] = target: T4, MuSK(h) (Homo sapiens, UniProt O15146)
T4 construct: purchased Eurofins (KinaseProfiler)
How it was run: as §1

[5] = target: T5, PAK2(h) (Homo sapiens, UniProt Q13177)
T5 construct: purchased Eurofins (KinaseProfiler)
How it was run: as §1

[6] = target: T6, Met(D1246N)(h) (Homo sapiens, UniProt P08581, D1228N)
T6 construct: purchased Eurofins (KinaseProfiler)
How it was run: as §1

[7] = target: T7, EphA8(h) (Homo sapiens, UniProt P29322)
T7 construct: purchased Eurofins (KinaseProfiler)
How it was run: as §1

[8] = target: T8, Aurora-C(h) (Homo sapiens, UniProt Q9UQB9)
T8 construct: purchased Eurofins (KinaseProfiler)
How it was run: as §1

[9] = target: T9, CDKL4(h) (Homo sapiens, UniProt Q5MAI5)
T9 construct: purchased Eurofins (KinaseProfiler)
How it was run: as §1

[10] = target: T10, IKKε(h) (Homo sapiens, UniProt Q14164)
T10 construct: purchased Eurofins (KinaseProfiler)
How it was run: as §1

[11] = target: T11, CaMKIIα(h) (Homo sapiens, UniProt Q9UQM7)
T11 construct: purchased Eurofins (KinaseProfiler)
How it was run: as §1

[12] = target: T12, MEK1(h) (Homo sapiens, UniProt Q02750)
T12 construct: purchased Eurofins (KinaseProfiler)
How it was run: as §1

[13] = target: T13, EGFR(h) (Homo sapiens, UniProt P00533)
T13 construct: purchased Eurofins (KinaseProfiler)
How it was run: as §1

[14] = target: T14, PASK(h) (Homo sapiens, UniProt Q96RG2)
T14 construct: purchased Eurofins (KinaseProfiler)
How it was run: as §1

[15] = target: T15, CHK2(R145W)(h) (Homo sapiens, UniProt O96017, R145W)
T15 construct: purchased Eurofins (KinaseProfiler)
How it was run: as §1

[16] = target: T16, cKit(V560G)(h) (Homo sapiens, UniProt P10721, V560G)
T16 construct: purchased Eurofins (KinaseProfiler)
How it was run: as §1

[17] = target: T17, Ron(h) (Homo sapiens, UniProt Q04912)
T17 construct: purchased Eurofins (KinaseProfiler)
How it was run: as §1

[18] = target: T18, TTBK2(h) (Homo sapiens, UniProt Q6IQ55)
T18 construct: purchased Eurofins (KinaseProfiler)
How it was run: as §1

[19] = target: T19, SLK(h) (Homo sapiens, UniProt Q9H2G2)
T19 construct: purchased Eurofins (KinaseProfiler)
How it was run: as §1

[20] = target: T20, Tec(h) activated (Homo sapiens, UniProt P42680)
T20 construct: purchased Eurofins (KinaseProfiler)
How it was run: as §1

[21] = target: T21, JAK3(h) (Homo sapiens, UniProt P52333)
T21 construct: purchased Eurofins (KinaseProfiler)
How it was run: as §1

[22] = target: PI3 Kinase (p110b/p85b)(m) (Mus musculus, UniProt Q8BTI9)
How it was run: as §1

[23] = target: T22, GRK2(h) (Homo sapiens, UniProt P25098)
T22 construct: purchased Eurofins (KinaseProfiler)
How it was run: as §1

[24] = target: T23, TSSK3(h) (Homo sapiens, UniProt Q96PN8)
T23 construct: purchased Eurofins (KinaseProfiler)
How it was run: as §1

[25] = target: T24, Aurora-A(h) (Homo sapiens, UniProt O14965)
T24 construct: purchased Eurofins (KinaseProfiler)
How it was run: as §1

[26] = target: T25, SIK2(h) (Homo sapiens, UniProt Q9H0K1)
T25 construct: purchased Eurofins (KinaseProfiler)
How it was run: as §1

[27] = target: T26, Abl(Y253F)(h) (Homo sapiens, UniProt P00519, Y253F)
T26 construct: purchased Eurofins (KinaseProfiler)
How it was run: as §1

[28] = target: T27, EphB2(h) (Homo sapiens, UniProt P29323)
T27 construct: purchased Eurofins (KinaseProfiler)
How it was run: as §1

[29] = target: T28, Met(h) (Homo sapiens, UniProt P08581)
T28 construct: purchased Eurofins (KinaseProfiler)
How it was run: as §1

[30] = target: T29, Src(T341M)(h) (Homo sapiens, UniProt P12931, T341M)
T29 construct: purchased Eurofins (KinaseProfiler)
How it was run: as §1

[31] = target: T30, ACK1(h) (Homo sapiens, UniProt Q07912)
T30 construct: purchased Eurofins (KinaseProfiler)
How it was run: as §1

[32] = target: T31, CDK18/cyclinY(h) (Homo sapiens, UniProt Q07002)
T31 construct: purchased Eurofins (KinaseProfiler)
How it was run: as §1

[33] = target: T32, TYK2(h) (Homo sapiens, UniProt P29597)
T32 construct: purchased Eurofins (KinaseProfiler)
How it was run: as §1

[34] = target: T33, PKCβI(h) (Homo sapiens, UniProt P05771)
T33 construct: purchased Eurofins (KinaseProfiler)
How it was run: as §1

[35] = target: T34, SAPK2b(h) (Homo sapiens, UniProt Q15759)
T34 construct: purchased Eurofins (KinaseProfiler)
How it was run: as §1

[36] = target: T35, STK39(h) (Homo sapiens, UniProt Q9UEW8)
T35 construct: purchased Eurofins (KinaseProfiler)
How it was run: as §1

[37] = target: PI3 Kinase (p110d/p85a)(m) (Mus musculus, UniProt O35904)
How it was run: as §1

[38] = target: T36, GSK3α(h) (Homo sapiens, UniProt P49840)
T36 construct: purchased Eurofins (KinaseProfiler)
How it was run: as §1

T33 sequence (P05771 whole entry): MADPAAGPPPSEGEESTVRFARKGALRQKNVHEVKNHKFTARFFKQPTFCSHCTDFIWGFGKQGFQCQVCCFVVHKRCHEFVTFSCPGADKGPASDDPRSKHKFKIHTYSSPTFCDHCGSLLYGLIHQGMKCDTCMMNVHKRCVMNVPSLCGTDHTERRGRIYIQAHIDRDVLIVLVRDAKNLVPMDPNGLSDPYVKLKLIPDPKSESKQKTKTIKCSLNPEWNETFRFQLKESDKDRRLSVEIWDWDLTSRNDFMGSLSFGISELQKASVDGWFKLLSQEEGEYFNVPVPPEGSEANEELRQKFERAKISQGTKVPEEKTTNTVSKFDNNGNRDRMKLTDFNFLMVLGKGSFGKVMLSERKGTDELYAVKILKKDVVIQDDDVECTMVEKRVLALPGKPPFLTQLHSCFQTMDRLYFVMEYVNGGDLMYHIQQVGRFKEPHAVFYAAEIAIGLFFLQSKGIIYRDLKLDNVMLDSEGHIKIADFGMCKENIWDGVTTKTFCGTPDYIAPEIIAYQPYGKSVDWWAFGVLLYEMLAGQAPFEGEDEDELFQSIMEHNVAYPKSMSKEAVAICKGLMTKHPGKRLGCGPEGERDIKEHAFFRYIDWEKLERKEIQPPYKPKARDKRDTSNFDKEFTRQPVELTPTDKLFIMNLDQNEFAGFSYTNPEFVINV
T7 sequence (P29322 28-1005): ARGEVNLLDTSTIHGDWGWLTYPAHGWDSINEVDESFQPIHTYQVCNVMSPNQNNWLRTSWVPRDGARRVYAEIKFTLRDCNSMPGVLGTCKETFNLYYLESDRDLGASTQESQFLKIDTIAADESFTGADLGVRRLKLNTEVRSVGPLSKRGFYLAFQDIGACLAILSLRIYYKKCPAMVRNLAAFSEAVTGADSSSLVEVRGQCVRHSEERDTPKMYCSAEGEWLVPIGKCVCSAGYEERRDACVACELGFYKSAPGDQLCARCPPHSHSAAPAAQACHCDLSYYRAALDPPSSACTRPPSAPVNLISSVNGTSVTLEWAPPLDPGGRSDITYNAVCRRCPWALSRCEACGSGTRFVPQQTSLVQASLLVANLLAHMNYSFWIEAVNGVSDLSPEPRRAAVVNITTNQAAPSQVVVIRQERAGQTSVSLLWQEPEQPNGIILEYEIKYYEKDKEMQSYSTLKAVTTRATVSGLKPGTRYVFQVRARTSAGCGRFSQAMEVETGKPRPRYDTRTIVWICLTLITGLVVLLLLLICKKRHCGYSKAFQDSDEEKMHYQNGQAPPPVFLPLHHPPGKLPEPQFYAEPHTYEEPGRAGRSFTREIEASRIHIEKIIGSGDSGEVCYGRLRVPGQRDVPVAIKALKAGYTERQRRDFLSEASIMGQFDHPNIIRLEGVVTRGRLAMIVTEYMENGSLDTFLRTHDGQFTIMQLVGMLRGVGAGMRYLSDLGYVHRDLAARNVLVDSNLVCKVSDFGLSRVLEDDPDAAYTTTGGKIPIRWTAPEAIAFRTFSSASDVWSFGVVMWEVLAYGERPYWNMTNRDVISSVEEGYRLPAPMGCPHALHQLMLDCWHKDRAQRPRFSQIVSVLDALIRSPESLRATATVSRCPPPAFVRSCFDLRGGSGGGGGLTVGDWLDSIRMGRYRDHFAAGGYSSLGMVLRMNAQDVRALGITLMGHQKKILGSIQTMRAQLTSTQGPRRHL
T11 sequence (Q9UQM7 whole entry): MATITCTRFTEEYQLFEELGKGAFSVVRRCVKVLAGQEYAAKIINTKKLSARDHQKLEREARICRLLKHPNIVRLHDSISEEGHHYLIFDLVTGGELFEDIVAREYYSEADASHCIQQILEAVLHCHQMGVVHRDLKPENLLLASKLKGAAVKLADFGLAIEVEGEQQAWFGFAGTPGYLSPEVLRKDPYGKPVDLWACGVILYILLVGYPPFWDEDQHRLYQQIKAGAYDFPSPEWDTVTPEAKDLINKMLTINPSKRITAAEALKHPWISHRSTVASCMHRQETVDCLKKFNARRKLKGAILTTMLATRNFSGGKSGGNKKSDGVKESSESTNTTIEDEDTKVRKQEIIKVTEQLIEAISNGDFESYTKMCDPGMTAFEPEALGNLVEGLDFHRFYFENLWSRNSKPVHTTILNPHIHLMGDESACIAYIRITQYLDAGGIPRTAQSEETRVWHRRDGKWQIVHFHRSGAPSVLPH
T36 sequence (P49840 whole entry): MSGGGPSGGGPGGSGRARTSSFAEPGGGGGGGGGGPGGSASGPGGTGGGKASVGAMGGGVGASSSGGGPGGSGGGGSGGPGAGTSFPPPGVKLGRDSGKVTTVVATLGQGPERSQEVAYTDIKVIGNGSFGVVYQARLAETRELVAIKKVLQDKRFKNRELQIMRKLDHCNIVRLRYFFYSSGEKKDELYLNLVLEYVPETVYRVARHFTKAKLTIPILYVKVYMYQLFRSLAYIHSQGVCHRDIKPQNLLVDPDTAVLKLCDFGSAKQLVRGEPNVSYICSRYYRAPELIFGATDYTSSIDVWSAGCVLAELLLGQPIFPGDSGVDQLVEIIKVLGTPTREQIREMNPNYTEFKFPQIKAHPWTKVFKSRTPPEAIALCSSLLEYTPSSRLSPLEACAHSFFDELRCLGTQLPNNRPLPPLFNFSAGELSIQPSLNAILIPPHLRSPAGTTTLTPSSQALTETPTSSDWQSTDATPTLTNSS
T17 sequence (Q04912 25-1400): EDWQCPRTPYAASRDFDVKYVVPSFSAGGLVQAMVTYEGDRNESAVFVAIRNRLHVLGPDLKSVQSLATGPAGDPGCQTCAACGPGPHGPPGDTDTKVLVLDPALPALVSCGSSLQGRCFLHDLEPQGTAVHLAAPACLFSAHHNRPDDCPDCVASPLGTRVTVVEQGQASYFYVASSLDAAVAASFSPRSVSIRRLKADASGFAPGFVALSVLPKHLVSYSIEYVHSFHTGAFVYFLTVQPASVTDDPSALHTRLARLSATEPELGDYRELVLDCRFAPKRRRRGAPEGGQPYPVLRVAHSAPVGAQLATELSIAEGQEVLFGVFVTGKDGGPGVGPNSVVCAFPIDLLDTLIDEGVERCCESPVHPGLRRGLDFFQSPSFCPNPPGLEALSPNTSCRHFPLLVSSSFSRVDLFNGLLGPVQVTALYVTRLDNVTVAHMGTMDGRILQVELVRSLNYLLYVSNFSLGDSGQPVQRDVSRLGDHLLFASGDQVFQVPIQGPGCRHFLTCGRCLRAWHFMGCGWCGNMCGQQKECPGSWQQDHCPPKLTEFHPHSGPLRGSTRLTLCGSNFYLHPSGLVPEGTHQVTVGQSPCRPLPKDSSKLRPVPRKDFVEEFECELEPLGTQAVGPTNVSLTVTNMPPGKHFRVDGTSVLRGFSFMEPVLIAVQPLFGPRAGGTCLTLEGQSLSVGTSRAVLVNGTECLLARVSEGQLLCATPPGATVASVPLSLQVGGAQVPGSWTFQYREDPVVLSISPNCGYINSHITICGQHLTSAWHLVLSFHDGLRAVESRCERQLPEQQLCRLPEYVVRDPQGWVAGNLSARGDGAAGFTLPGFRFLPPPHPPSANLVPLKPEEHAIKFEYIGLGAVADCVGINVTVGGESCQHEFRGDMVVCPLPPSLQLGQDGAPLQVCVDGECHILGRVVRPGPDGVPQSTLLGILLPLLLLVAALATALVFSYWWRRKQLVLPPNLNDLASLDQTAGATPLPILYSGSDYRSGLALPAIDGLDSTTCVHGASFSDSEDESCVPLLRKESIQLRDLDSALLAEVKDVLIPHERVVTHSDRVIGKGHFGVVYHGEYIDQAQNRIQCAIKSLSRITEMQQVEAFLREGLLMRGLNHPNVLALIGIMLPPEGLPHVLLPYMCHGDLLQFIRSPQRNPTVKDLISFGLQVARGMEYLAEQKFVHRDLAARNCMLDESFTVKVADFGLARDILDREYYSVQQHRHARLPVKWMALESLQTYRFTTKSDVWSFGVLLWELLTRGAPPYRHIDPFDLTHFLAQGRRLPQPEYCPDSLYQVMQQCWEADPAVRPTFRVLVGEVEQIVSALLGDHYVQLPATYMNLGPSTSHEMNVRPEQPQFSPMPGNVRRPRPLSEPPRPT
T25 sequence (Q9H0K1 whole entry): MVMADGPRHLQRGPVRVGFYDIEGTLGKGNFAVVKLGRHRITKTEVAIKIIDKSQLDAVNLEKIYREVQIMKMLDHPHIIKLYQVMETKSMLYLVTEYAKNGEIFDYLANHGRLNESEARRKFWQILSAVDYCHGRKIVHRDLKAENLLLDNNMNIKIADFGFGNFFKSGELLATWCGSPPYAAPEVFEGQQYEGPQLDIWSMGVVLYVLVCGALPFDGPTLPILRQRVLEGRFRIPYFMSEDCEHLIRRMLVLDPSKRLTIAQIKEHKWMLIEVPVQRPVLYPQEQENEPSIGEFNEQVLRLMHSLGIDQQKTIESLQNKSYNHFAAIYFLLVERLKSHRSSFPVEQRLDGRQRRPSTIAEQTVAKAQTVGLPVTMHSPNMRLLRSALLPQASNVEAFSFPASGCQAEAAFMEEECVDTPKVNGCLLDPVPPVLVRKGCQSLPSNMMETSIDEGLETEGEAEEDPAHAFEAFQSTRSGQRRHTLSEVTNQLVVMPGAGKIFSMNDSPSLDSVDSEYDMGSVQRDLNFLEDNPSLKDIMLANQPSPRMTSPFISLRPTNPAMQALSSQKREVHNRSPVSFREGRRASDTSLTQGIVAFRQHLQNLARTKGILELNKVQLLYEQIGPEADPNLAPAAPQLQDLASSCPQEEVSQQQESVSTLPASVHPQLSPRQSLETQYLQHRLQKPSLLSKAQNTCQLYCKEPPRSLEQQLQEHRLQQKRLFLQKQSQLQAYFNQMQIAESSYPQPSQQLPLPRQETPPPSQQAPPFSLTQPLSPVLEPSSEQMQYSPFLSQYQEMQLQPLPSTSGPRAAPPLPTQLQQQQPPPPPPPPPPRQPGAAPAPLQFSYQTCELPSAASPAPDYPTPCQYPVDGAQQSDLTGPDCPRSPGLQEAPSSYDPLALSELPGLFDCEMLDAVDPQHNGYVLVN

Q: What does the source list for `Cc1cc(/C=C/C#N)cc(C)c1Nc1ccnc(Nc2ccc(C#N)cc2)n1` [rilpivirine, (E)-4-((4-((4-(2-cyanoethenyl)-2,6-dimethylphenyl)amino)pyrimidin-2-yl)amino)benzonitrile]?
A: remaining activity at 1 µM [1]: 100%; remaining activity at 1 µM [2]: 86%; remaining activity at 1 µM [3]: 91%; remaining activity at 1 µM [4]: 96%; remaining activity at 1 µM [5]: 89%; remaining activity at 1 µM [6]: 102%; remaining activity at 1 µM [7]: 60%; remaining activity at 1 µM [8]: 93%; remaining activity at 1 µM [9]: 74%; remaining activity at 1 µM [10]: 82%; remaining activity at 1 µM [11]: 61%; remaining activity at 1 µM [12]: 101%; remaining activity at 1 µM [13]: 111%; remaining activity at 1 µM [14]: 85%; remaining activity at 1 µM [15]: 76%; remaining activity at 1 µM [16]: 74%; remaining activity at 1 µM [17]: 85%; remaining activity at 1 µM [18]: 88%; remaining activity at 1 µM [19]: 106%; remaining activity at 1 µM [20]: 105%; remaining activity at 1 µM [21]: 68%; remaining activity at 1 µM [22]: 97%; remaining activity at 1 µM [23]: 81%; remaining activity at 1 µM [24]: 95%; remaining activity at 1 µM [25]: 14%; remaining activity at 1 µM [26]: 57%; remaining activity at 1 µM [27]: 58%; remaining activity at 1 µM [28]: 78%; remaining activity at 1 µM [29]: 80%; remaining activity at 1 µM [30]: 78%; remaining activity at 1 µM [31]: 97%; remaining activity at 1 µM [32]: 93%; remaining activity at 1 µM [33]: 52%; remaining activity at 1 µM [34]: 89%; remaining activity at 1 µM [35]: 98%; remaining activity at 1 µM [36]: 95%; remaining activity at 1 µM [37]: 99%; remaining activity at 1 µM [38]: 80%
